The source of these data is ChEMBL document CHEMBL1131854, “Design, synthesis and antimuscarinic activity of some imidazolium derivatives” (Bioorg Med Chem Lett, 1999).

In experiment [1] the target is Muscarinic acetylcholine receptors; M2 & M3 (Homo sapiens) (UniProt P20309+P08172). Nature of the experiment: Selectivity ratio between Kb values of M2-receptor (atria) and M3-receptor (ileum). Type of experiment: tissue-based. Conditions: Cavia porcellus.
Experiment [2] deals with Muscarinic acetylcholine receptor M3 (Cavia porcellus) (UniProt Q8VH26). The experiment is described as follows: Antimuscarinic activity against muscarinic acetylcholine M3-receptor in guinea pig ileum. Type of experiment: tissue-based.
Chain of Muscarinic acetylcholine receptor M3 (Cavia porcellus) (Q8VH26 1-587): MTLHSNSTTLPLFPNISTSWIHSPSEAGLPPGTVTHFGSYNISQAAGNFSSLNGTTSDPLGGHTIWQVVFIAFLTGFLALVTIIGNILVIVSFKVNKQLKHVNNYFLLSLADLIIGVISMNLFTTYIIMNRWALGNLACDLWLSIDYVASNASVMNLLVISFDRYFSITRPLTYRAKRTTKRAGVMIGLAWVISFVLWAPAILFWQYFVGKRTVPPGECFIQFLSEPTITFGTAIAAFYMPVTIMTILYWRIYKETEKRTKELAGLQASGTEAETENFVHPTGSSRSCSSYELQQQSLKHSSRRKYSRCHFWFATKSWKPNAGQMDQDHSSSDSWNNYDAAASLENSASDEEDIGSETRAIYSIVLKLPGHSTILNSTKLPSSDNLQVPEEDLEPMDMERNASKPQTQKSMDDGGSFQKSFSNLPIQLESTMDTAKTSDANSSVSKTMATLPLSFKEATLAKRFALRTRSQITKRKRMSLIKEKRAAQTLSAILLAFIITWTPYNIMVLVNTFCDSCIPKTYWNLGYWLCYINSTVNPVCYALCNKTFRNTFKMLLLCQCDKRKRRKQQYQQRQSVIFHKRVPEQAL

Molecules are shown by their SMILES.

In the case of `Cc1nccn1CCCCC(C(N)=O)(c1ccccc1)c1ccccc1`, in experiment [1], the Ratio turned out to be 3.39.

In experiment [2], `CCCc1n(CCC(C(N)=O)(c2ccccc2)c2ccccc2)cc[n+]1C` showed a Kb of 12.5 nM. Moreover, the Ratio in experiment [1] is 1.74.

In experiment [2], `Cc1n(CCC(C(N)=O)(c2ccccc2)c2ccccc2)cc[n+]1Cc1ccc(-c2ccccc2)cc1` yielded a Kb of 1.24 nM. In addition, the Ratio in experiment [1] is 24.8.

As to `Cc1n(CCC(C(N)=O)(c2ccccc2)c2ccccc2)cc[n+]1Cc1ccccc1Cl`, the Kb in experiment [2] came to 11.8 nM. Also, the Ratio in experiment [1] stood at 5.67.

As to `Cc1n(CCC(C(N)=O)(c2ccccc2)c2ccccc2)cc[n+]1Cc1cccc(Cl)c1`, the Kb in experiment [2] came out at 5.62 nM. Besides, the Ratio in experiment [1] was determined as 4.36.

In experiment [2], `Cc1n(CCCC(C(N)=O)(c2ccccc2)c2ccccc2)cc[n+]1Cc1ccccc1` showed a Kb of 0.639 nM. Moreover, in experiment [1], the Ratio was 9.94.

As to `CCc1nccn1CCC(C(N)=O)(c1ccccc1)c1ccccc1`, the Ratio in experiment [1] was determined as 3.3.

For the compound `CC(C)(C)c1nccn1CCC(C(N)=O)(c1ccccc1)c1ccccc1`, in experiment [1], the Ratio amounted to 2.45.

In experiment [2], `Cc1n(CCC(C(N)=O)(c2ccccc2)c2ccccc2)cc[n+]1Cc1ccccc1` came in with a Kb of 4.96 nM. Further, the Ratio in experiment [1] was determined as 13.5.

The compound `Cc1ccccc1C[n+]1ccn(CCC(C(N)=O)(c2ccccc2)c2ccccc2)c1C` had a Kb in experiment [2] of 21.1 nM. Also, the Ratio in experiment [1] was 2.24.

`Cc1n(CCC(C(N)=O)(c2ccccc2)c2ccccc2)cc[n+]1Cc1ccc([N+](=O)[O-])cc1` gave a Kb in experiment [2] of 0.858 nM. In addition, the Ratio in experiment [1] came out at 5.28.

`Cc1n(CCCCC(C(N)=O)(c2ccccc2)c2ccccc2)cc[n+]1Cc1ccccc1` had a Kb in experiment [2] of 0.756 nM. Moreover, the Ratio in experiment [1] was 26.2.

Regarding `Cc1n(CCC(C(N)=O)(c2ccccc2)c2ccccc2)cc[n+]1Cc1ccc(Cl)cc1`, the Kb in experiment [2] worked out at 0.647 nM. Further, the Ratio in experiment [1] was 9.32.

`Cc1ccc(C[n+]2ccn(CCC(C(N)=O)(c3ccccc3)c3ccccc3)c2C)cc1` gave a Kb in experiment [2] of 1.02 nM. In experiment [1], the Ratio is 7.15.

In turn, `CCC[n+]1ccn(CCC(C(N)=O)(c2ccccc2)c2ccccc2)c1C` came in with a Kb in experiment [2] of 4.07 nM. Also, in experiment [1], the Ratio is 3.02.

`CCCC[n+]1ccn(CCC(C(N)=O)(c2ccccc2)c2ccccc2)c1C` gave a Kb in experiment [2] of 3.12 nM. Further, the Ratio in experiment [1] stood at 5.83.

For `Cc1nccn1CCC(C(N)=O)(c1ccccc1)c1ccccc1`, the Ratio in experiment [1] stood at 13.

Regarding `NC(=O)C(CCn1ccnc1)(c1ccccc1)c1ccccc1`, the Ratio in experiment [1] was found to be 13.5.

`Cc1n(CCC(C(N)=O)(c2ccccc2)c2ccccc2)cc[n+]1Cc1ccc(Br)cc1`: in experiment [2], the Kb is 0.117 nM. In addition, the Ratio in experiment [1] was 22.1.

`CCc1n(CCC(C(N)=O)(c2ccccc2)c2ccccc2)cc[n+]1C` showed a Kb in experiment [2] of 1.14 nM. In experiment [1], the Ratio worked out at 4.11.

Consider `Cc1n(CCC(C(N)=O)(c2ccccc2)c2ccccc2)cc[n+]1C`, for which the Kb in experiment [2] stood at 3.78 nM. Besides, in experiment [1], the Ratio turned out to be 1.68.

In the case of `CC[n+]1ccn(CCC(C(N)=O)(c2ccccc2)c2ccccc2)c1C`, in experiment [2], the Kb came to 7.11 nM. In addition, in experiment [1], the Ratio was determined as 1.3.

As for `Cc1cccc(C[n+]2ccn(CCC(C(N)=O)(c3ccccc3)c3ccccc3)c2C)c1`, the Kb in experiment [2] was found to be 2.52 nM. In addition, in experiment [1], the Ratio is 4.6.

Regarding `CCCc1nccn1CCC(C(N)=O)(c1ccccc1)c1ccccc1`, the Ratio in experiment [1] was 1.44.

On to `Cc1nccn1CCCC(C(N)=O)(c1ccccc1)c1ccccc1`, for which, in experiment [1], the Ratio is 17.6.
